Measurements reported in US20170067909A1, “ASSAY-READY RECOMBINANT CELLS TRANSIENTLY OVEREXPRESSING GENES ENCODING DRUG TRANSPORTER PROTEINS AND/OR DRUG METABOLIZING ENZYMES” (Corning Incorporated, priority 2012, published 2017).
Residue numbers refer to the chain shown, from its start. Where two headings read alike, the source gives them in different places.

Legend:
[1] = target: T1, OATP1B1 (Homo sapiens, UniProt Q9Y6L6)
T1 sequence (Q9Y6L6 1-691): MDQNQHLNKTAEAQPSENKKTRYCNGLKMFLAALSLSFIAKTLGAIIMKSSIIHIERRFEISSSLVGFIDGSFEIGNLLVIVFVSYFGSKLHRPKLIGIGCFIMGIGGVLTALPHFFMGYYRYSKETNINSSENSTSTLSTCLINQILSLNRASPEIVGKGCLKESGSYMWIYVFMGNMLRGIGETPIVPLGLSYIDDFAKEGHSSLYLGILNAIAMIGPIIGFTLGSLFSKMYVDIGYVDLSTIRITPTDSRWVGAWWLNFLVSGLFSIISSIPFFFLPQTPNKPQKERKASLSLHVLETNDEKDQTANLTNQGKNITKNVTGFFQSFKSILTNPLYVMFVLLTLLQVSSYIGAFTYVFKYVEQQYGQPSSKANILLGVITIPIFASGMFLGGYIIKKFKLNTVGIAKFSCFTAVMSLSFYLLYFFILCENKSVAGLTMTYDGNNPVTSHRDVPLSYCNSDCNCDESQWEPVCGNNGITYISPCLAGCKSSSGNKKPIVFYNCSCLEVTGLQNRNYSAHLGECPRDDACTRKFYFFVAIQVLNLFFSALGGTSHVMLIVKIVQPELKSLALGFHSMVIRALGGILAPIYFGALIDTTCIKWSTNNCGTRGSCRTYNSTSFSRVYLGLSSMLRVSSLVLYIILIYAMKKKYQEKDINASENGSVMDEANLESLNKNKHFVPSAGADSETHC

[2] = target: T2, OATP1B1*1a (Homo sapiens, UniProt Q9Y6L6); conditions: read-out: Km, SLC Transporter Cells; substrate 0.25 to 40 μM, incubation 1 min
T2 sequence (Q9Y6L6 1-691): T1 sequence (Q9Y6L6 1-691)

[3] = tested on: monkey Oatp1b1
[4] = target: T3, rat Oatp1b2 (Rattus norvegicus, UniProt Q9QZX8)
T3 sequence (Q9QZX8 1-687): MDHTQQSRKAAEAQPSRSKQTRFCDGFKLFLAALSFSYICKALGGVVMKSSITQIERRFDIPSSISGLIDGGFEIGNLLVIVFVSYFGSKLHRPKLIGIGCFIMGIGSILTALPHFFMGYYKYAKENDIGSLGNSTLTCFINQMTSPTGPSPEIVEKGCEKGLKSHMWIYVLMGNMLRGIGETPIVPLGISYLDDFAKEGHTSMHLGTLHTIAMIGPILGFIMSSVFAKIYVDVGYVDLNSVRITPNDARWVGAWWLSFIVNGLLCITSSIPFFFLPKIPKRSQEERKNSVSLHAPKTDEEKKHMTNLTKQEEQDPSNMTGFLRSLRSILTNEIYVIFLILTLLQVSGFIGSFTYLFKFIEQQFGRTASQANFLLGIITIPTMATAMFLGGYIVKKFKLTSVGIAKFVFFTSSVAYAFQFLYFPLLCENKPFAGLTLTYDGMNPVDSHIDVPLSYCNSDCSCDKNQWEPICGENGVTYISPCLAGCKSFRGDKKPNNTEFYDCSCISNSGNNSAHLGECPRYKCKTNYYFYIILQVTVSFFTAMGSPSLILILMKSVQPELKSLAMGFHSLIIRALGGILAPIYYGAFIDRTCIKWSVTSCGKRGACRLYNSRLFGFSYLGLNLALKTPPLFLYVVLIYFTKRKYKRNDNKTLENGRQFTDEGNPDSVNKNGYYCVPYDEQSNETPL

[5] = target: T2, OATP1B1*1a; conditions: read-out: Km, Literature Report; HEK293 cells; P. Sharma, et al. Xenobiotica 40:24. 2010; cited from earlier work
[6] = target: T4, OATP1B1*5 (Homo sapiens, UniProt Q9Y6L6, V174A); assay: OATP1B1 single nucleotide polymorphism panel uptake assay, OATP1B1*5 HEK-293 cells
T4 sequence (Q9Y6L6 1-691 V174A): T1 sequence (Q9Y6L6 1-691) with V174A

[7] = HEK-293 cells overexpressing the transporter

Compound	UPTAKE ACTIVITY pOATP1B1 ([1]; 293-F cells, 0.2 × 10^6 cells/well, after thaw from cryopreservation) [pmol/mg/min]	UPTAKE ACTIVITY pOATP1B1 ([1]; 293-F in CD293, cryo, 24 hr post plating, 0.4×10^6 cells/well) [pmol/mg/min]	UPTAKE ACTIVITY pOATP1B1 ([1]; 293-F in CD293, cryo, 72 hr post plating, 0.4×10^6 cells/well) [pmol/mg/min]	UPTAKE ACTIVITY pOATP1B1 ([1]; 293-F in CD293, fresh, 48 hr post plating, 0.4×10^6 cells/well)	UPTAKE ACTIVITY pOATP1B1 ([1]; FS293 cells, 0.2 × 10^6 cells/well, after thaw from cryopreservation) [pmol/mg/min]	UPTAKE ACTIVITY pOATP1B1 ([1]; FS293 in Excell, cryo, 24 hr post plating, 0.4×10^6 cells/well) [pmol/mg/min]	UPTAKE ACTIVITY pOATP1B1 ([1]; FS293 in Excell, cryo, 48 hr post plating, 0.4×10^6 cells/well) [pmol/mg/min]	UPTAKE ACTIVITY pOATP1B1 ([1]; FS293 in Excell, cryo, 72 hr post plating, 0.4×10^6 cells/well) [pmol/mg/min]	Uptake Activity ([1]; recovery time prior to cryopreservation 24 HOURS) [pmol/mg/min]	Uptake Activity ([1]; recovery time prior to cryopreservation 30 MIN) [pmol/mg/min]	Km [2] [µM]	uptake of substrate (in words) [3, 7]	Km ([3]; incubation of 5 minutes, Michaelis-Menten kinetics) [µM]	Km [4] [µM]	uptake of substrate (in words) [4, 7]	Km [5] [µM]	uptake activity / transport compared to OATP1B1*1a cells (in words) [6]
C[C@]12CC[C@@H]3c4ccc(O)cc4CC[C@H]3[C@@H]1CC[C@@H]2O[C@@H]1O[C@H](C(=O)O)[C@@H](O)[C@H](O)[C@H]1O [E17βG]	20.2	27.4	9.9	15.4 (85%) pmol/mg/min	10.5	36.4	10.0	6.6	0.59	5.78	6.2	significant uptake	6.3 ± 1.4	9.6 ± 1.9	significant uptake	6.3	Significantly impaired transport
fluorescein methotrexate [FMTX]																	Significantly impaired transport
